US9920049B2 (priority 2014, dated 2018)

system: HBsAg; test: HBsAg assay (CLIA of secreted HBsAg in HepG2.2.15 culture supernatant); format: cell-based, HBV; conditions: Hepatitis B virus
Protocol: HepG2.2.15 cells (Acs et al. Proc Natl Acad Sci USA, 84, (1987), 4641-4), a constitutively HBV-expressing cell line were cultured in DMEM+Glutamax-I medium (Invitrogen, Carlsbad, Calif., USA), supplemented with 10% fetal bovine serum (Invitrogen) and G418 (Invitrogen) at a final concentration of 200 mg/L and maintained in 5% CO2 at 37° C.
HepG2.2.15 cells were seeded in duplicate into white, 96-well plates at 1.5×10^4 cells/well. The cells were treated with a three-fold serial dilution series of the compounds in DMSO. The final DMSO concentration in all wells was 1% and DMSO was used as no drug control.
The HBsAg chemiluminescence immunoassay (CLIA) kit (Autobio Diagnostics Co., Zhengzhou, China, Catalog number: CL0310-2) was used to measure the levels of secreted HBV antigens semi-quantitatively. For the detection 50 μL/well culture supernatant was used and HBsAg was quantified using HBsAg chemiluminescence immunoassay (CLIA) kit (Autobio Diagnostics Co., Zhengzhou, China, Catalog number: CL0310-2), 50 μl of the supernatant was transferred to the CLIA assay plate and 50 μL of enzyme conjugate reagent was added into each well. The plates were sealed and gently agitated for 1 hour at room temperature. The supernatant-enzyme-mixture was discarded and wells were washed 6 times with 300 μL of PBS. The residual liquid was removed by plating the CLIA plate right side down on absorbent tissue paper. 25 μL of substrates A and B were added to each well. Luminance was measured using a luminometer (Mithras LB 940 Multimode Microplate Reader) after 10 minutes incubation. Dose-response curves were generated and the IC50 value was extrapolated by using the E-WorkBook Suite (ID Business Solutions Ltd., Guildford, UK).
The compounds of the present invention were tested for their capacity to inhibit HBsAg as described herein.

**Q.** Which IC50 does the source give for CCC1Cc2cc(OCCCOC)c(OC)cc2-c2cc(=O)c(C(=O)NC(C)COC)cn21 (stereo not shown) [Example 16, 6-ethyl-10-methoxy-N-(2-methoxy-1-methyl-ethyl)-9-(3-methoxypropoxy)-2-oxo-6,7-dihydrobenzo[a]quinolizine-3-carboxamide] here?
**A.** Its IC50 is 18.4 µM.

**Q.** How did the IC50 turn out when CCC1Cc2cc(OCCCOC)c(OC)cc2-c2cc(=O)c(CN3CCCC3)cn21 (stereo not shown) [Example 25, 6-ethyl-10-methoxy-9-(3-methoxypropoxy)-3-(pyrrolidin-1-ylmethyl)-6,7-dihydrobenzo[a]quinolizin-2-one] was run?
**A.** Its IC50 is 16.4 µM.

**Q.** For COc1cc2c(cc1OC)-c1cc(=O)c(C(=O)Nc3nnn[nH]3)cn1C(CC(F)(F)F)C2 (stereo not shown) [Example 35, 9,10-dimethoxy-2-oxo-N-(1H-tetrazol-5-yl)-6-(2,2,2-trifluoroethyl)-6,7-dihydrobenzo[a]quinolizine-3-carboxamide], which IC50 is on record?
**A.** The IC50 was 12.9 µM.

**Q.** How did the IC50 turn out when CCOc1cc2c(cc1OC)-c1cc(=O)c(C(=O)NC(C)COC)cn1C(CC)C2 (stereo not shown) [Example 17, 9-ethoxy-6-ethyl-10-methoxy-N-(2-methoxy-1-methyl-ethyl)-2-oxo-6,7-dihydrobenzo[a]quinolizine-3-carboxamide] was run?
**A.** Its IC50 is 2.2 µM.

**Q.** CCC1Cc2cc(OCCCOC)c(OC)cc2-c2cc(=O)c(C(=O)Nc3nnn[nH]3)cn21 (stereo not shown) [Example 14, 6-ethyl-10-methoxy-9-(3-methoxypropoxy)-2-oxo-N-(1H-tetrazol-5-yl)-6,7-dihydrobenzo[a]quinolizine-3-carboxamide] was tested. Which IC50 did it give?
**A.** The IC50 was 1.1 µM.

**Q.** For CCC1Cc2cc(OCC3CC3)c(OC)cc2-c2cc(=O)c(C(=O)NC(C)COC)cn21 (stereo not shown) [Example 19, 9-(cyclopropylmethoxy)-6-ethyl-10-methoxy-N-(2-methoxy-1-methyl-ethyl)-2-oxo-6,7-dihydrobenzo[a]quinolizine-3-carboxamide], which IC50 is on record?
**A.** The IC50 was 8 µM.

**Q.** For CCC1Cc2cc(OCc3ccccc3)c(OC)cc2-c2cc(=O)c(C(=O)NC(C)CO)cn21 (stereo not shown) [Example 7, 9-benzyloxy-6-ethyl-N-(2-hydroxy-1-methyl-ethyl)-10-methoxy-2-oxo-6,7-dihydrobenzo[a]quinolizine-3-carboxamide], which IC50 is on record?
**A.** Its IC50 is 7.8 µM.

**Q.** With CCC1Cc2cc(OCc3ccccc3)c(OC)cc2-c2cc(=O)c(C(=O)NC(C)COC)cn21 (stereo not shown) [Example 3, 9-benzyloxy-6-ethyl-10-methoxy-N-(2-methoxy-1-methyl-ethyl)-2-oxo-6,7-dihydrobenzo[a]quinolizine-3-carboxamide] as the molecule, how does the IC50 read?
**A.** Its IC50 is 31 µM.

**Q.** With CCC1Cc2cc(OCCCOC)c(OC)cc2-c2cc(=O)c(CN3CCOCC3C(=O)O)cn21 (stereo not shown) [Example 21, 4-[[6-ethyl-10-methoxy-9-(3-methoxypropoxy)-2-oxo-6,7-dihydrobenzo[a]quinolizin-3-yl]methyl]morpholine-3-carboxylic Acid] as the molecule, how does the IC50 read?
**A.** Its IC50 is 19.4 µM.

**Q.** How did the IC50 turn out when CCC1Cc2cc(OCCCOC)c(OC)cc2-c2cc(=O)c(CN(C)CC(=O)O)cn21 (stereo not shown) [Example 30, 2-[[6-ethyl-10-methoxy-9-(3-methoxypropoxy)-2-oxo-6,7-dihydrobenzo[a]quinolizin-3-yl]methyl-methyl-amino]acetic Acid] was run?
**A.** The IC50 was 16.9 µM.

**Q.** Which IC50 does the source give for CC[C@@H]1Cc2cc(OC)c(OC)cc2-c2cc(=O)c(C(=O)Nc3nnn[nH]3)cn21 [Example 31, (6R)-6-ethyl-9,10-dimethoxy-2-oxo-N-(1H-tetrazol-5-yl)-6,7-dihydrobenzo[a]quinolizine-3-carboxamide] here?
**A.** Its IC50 is 44.1 µM.

**Q.** With CCC(C)NC(=O)c1cn2c(cc1=O)-c1cc(OC)c(OCc3ccccc3)cc1CC2CC (stereo not shown) [Example 9, 9-benzyloxy-6-ethyl-10-methoxy-2-oxo-N-sec-butyl-6,7-dihydrobenzo[a]quinolizine-3-carboxamide] as the molecule, how does the IC50 read?
**A.** Its IC50 is 5.4 µM.

**Q.** With CCC1Cc2cc(OCCCOC)c(OC)cc2-c2cc(=O)c(CN3CCCC3C(=O)O)cn21 (stereo not shown) [Example 23, 1-[[6-ethyl-10-methoxy-9-(3-methoxypropoxy)-2-oxo-6,7-dihydrobenzo[a]quinolizin-3-yl]methyl]pyrrolidine-2-carboxylic Acid] as the molecule, how does the IC50 read?
**A.** The IC50 was 17.3 µM.

**Q.** COCCOc1cc(Cl)c2c(c1)CC(C(C)C)n1cc(C(=O)Nc3nnn[nH]3)c(=O)cc1-2 (stereo not shown) [Example 34, 11-chloro-6-isopropyl-9-(2-methoxyethoxy)-2-oxo-N-(1H-tetrazol-5-yl)-6,7-dihydrobenzo[a]quinolizine-3-carboxamide] was tested. Which IC50 did it give?
**A.** Its IC50 is 18.3 µM.

**Q.** With COCCCOc1cc2c(cc1OC)-c1cc(=O)c(C(=O)Nc3nnn[nH]3)cn1C(C1CCC1)C2 (stereo not shown) [Example 33, 6-cyclobutyl-10-methoxy-9-(3-methoxypropoxy)-2-oxo-N-(1H-tetrazol-5-yl)-6,7-dihydrobenzo[a]quinolizine-3-carboxamide] as the molecule, how does the IC50 read?
**A.** The IC50 was 1 µM.

**Q.** With CCC1Cc2cc(OCCCOC)c(OC)cc2-c2cc(=O)c(CN3CCCCC3C(=O)O)cn21 (stereo not shown) [Example 22, 1-[[6-ethyl-10-methoxy-9-(3-methoxypropoxy)-2-oxo-6,7-dihydrobenzo[a]quinolizin-3-yl]methyl]piperidine-2-carboxylic Acid] as the molecule, how does the IC50 read?
**A.** The IC50 was 43.2 µM.

**Q.** For CCC1Cc2cc(OCc3ccccc3)c(OC)cc2-c2cc(=O)c(C(=O)NC(C)CN(C)C)cn21 (stereo not shown) [Example 11, 9-benzyloxy-N-[2-(dimethylamino)-1-methyl-ethyl]-6-ethyl-10-methoxy-2-oxo-6,7-dihydrobenzo[a]quinolizine-3-carboxamide], which IC50 is on record?
**A.** Its IC50 is 23.9 µM.

**Q.** COCCCOc1cc2c(cc1OC)-c1cc(=O)c(C(=O)Nc3nnn[nH]3)cn1C(C(C)(C)C)C2 (stereo not shown) [Example 32, 6-tert-butyl-10-methoxy-9-(3-methoxypropoxy)-2-oxo-N-(1H-tetrazol-5-yl)-6,7-dihydrobenzo[a]quinolizine-3-carboxamide] was tested. Which IC50 did it give?
**A.** The IC50 was 0.38 µM.

**Q.** Which IC50 does the source give for CCC1Cc2cc(OCc3ccccc3)c(OC)cc2-c2cc(=O)c(C(=O)NO)cn21 (stereo not shown) [Example 10, 9-benzyloxy-6-ethyl-10-methoxy-2-oxo-6,7-dihydrobenzo[a]quinolizine-3-carbohydroxamic Acid] here?
**A.** The IC50 was 20.3 µM.

**Q.** With CCC1Cc2cc(OCc3ccccc3)c(OC)cc2-c2cc(=O)c(C(=O)NS(C)(=O)=O)cn21 (stereo not shown) [Example 4, 9-benzyloxy-6-ethyl-10-methoxy-N-methylsulfonyl-2-oxo-6,7-dihydrobenzo[a]quinolizine-3-carboxamide] as the molecule, how does the IC50 read?
**A.** The IC50 was 0.92 µM.

**Q.** For COCCCOc1cc2c(cc1Cl)-c1cc(=O)c(C(=O)Nc3nnn[nH]3)cn1C(C(C)C)C2 (stereo not shown) [Example 37, 10-chloro-6-isopropyl-9-(3-methoxypropoxy)-2-oxo-N-(1H-tetrazol-5-yl)-6,7-dihydrobenzo[a]quinolizine-3-carboxamide], which IC50 is on record?
**A.** Its IC50 is 5.9 µM.

**Q.** For CCC1Cc2cc(OCCCOC)c(OC)cc2-c2cc(=O)c(CO)cn21 (stereo not shown) [Example 20, 6-ethyl-3-(hydroxymethyl)-10-methoxy-9-(3-methoxy-propoxy)-6,7-dihydrobenzo[a]quinolizin-2-one], which IC50 is on record?
**A.** The IC50 was 22.3 µM.

**Q.** With CCC1Cc2cc(OCc3ccccc3)c(OC)cc2-c2cc(=O)c(C(=O)NCc3ccccc3)cn21 (stereo not shown) [Example 1, N-benzyl-9-benzyloxy-6-ethyl-10-methoxy-2-oxo-6,7-dihydrobenzo[a]quinolizine-3-carboxamide] as the molecule, how does the IC50 read?
**A.** Its IC50 is 26.2 µM.

**Q.** How did the IC50 turn out when CCC1Cc2cc(OCC(C)C)c(OC)cc2-c2cc(=O)c(C(=O)NC(C)COC)cn21 (stereo not shown) [Example 18, 6-ethyl-9-isobutoxy-10-methoxy-N-(2-methoxy-1-methyl-ethyl)-2-oxo-6,7-dihydrobenzo[a]quinolizine-3-carboxamide] was run?
**A.** Its IC50 is 4.9 µM.

**Q.** How did the IC50 turn out when CCCNC(=O)c1cn2c(cc1=O)-c1cc(OC)c(OCc3ccccc3)cc1CC2CC (stereo not shown) [Example 5, 9-benzyloxy-6-ethyl-10-methoxy-2-oxo-N-propyl-6,7-dihydrobenzo[a]quinolizine-3-carboxamide] was run?
**A.** Its IC50 is 5.6 µM.

**Q.** With CCC1Cc2cc(OCCCOC)c(OC)cc2-c2cc(=O)c(CN(C)C)cn21 (stereo not shown) [Example 28, 3-[(dimethylamino)methyl]-6-ethyl-10-methoxy-9-(3-methoxypropoxy)-6,7-dihydrobenzo[a]quinolizin-2-one] as the molecule, how does the IC50 read?
**A.** Its IC50 is 3.7 µM.

**Q.** With CCC1Cc2cc(OCCCOC)c(OC)cc2-c2cc(=O)c(C(=O)NCc3ccccc3)cn21 (stereo not shown) [Example 15, N-benzyl-6-ethyl-10-methoxy-9-(3-methoxypropoxy)-2-oxo-6,7-dihydrobenzo[a]quinolizine-3-carboxamide] as the molecule, how does the IC50 read?
**A.** Its IC50 is 26.7 µM.

**Q.** Which IC50 does the source give for CCC1Cc2cc(OCCCOC)c(OC)cc2-c2cc(=O)c(COC)cn21 (stereo not shown) [Example 29, 6-ethyl-10-methoxy-3-(methoxymethyl)-9-(3-methoxypropoxy)-6,7-dihydrobenzo[a]quinolizin-2-one] here?
**A.** Its IC50 is 1.5 µM.

**Q.** Which IC50 does the source give for COCCCOc1cc2c(cc1OC)-c1cc(=O)c(C(=O)Nc3nnn[nH]3)cn1C(C(C)C)C2 (stereo not shown) [Example 36, 6-isopropyl-10-methoxy-9-(3-methoxypropoxy)-2-oxo-N-(1H-tetrazol-5-yl)-6,7-dihydrobenzo[a]quinolizine-3-carboxamide] here?
**A.** Its IC50 is 5.5 µM.

**Q.** For CCC1Cc2cc(OCCCOC)c(OC)cc2-c2cc(=O)c(CN3CCOCC3)cn21 (stereo not shown) [Example 26, 6-ethyl-10-methoxy-9-(3-methoxypropoxy)-3-(morpholinomethyl)-6,7-dihydrobenzo[a]quinolizin-2-one], which IC50 is on record?
**A.** Its IC50 is 16.2 µM.

**Q.** Which IC50 does the source give for COCCCOc1cc2c(cc1Cl)-c1cc(=O)c(C(=O)Nc3nnn[nH]3)cn1[C@H](C(C)C)C2 [Example 38, (+)-10-chloro-6-isopropyl-9-(3-methoxypropoxy)-2-oxo-N-(1H-tetrazol-5-yl)-6,7-dihydrobenzo[a]quinolizine-3-carboxamide] here?
**A.** Its IC50 is 2.3 µM.
